Literature values as cited in article PMC9050719 (RSC Advances, 2020).

Key:
[1] = prodrug of MPA

In the case of `COc1c(C)c2c(c(O)c1C/C=C(\C)CCC(=O)O)C(=O)OC2` [MPA, Mycophenolic acid], the “Administered dose giving profound toxicity in mice” value (mice) is given as “over 1000 mg per kg per day”.
For `COc1c(C)c2c(c(O)c1C/C=C(\C)CCC(=O)OCCN1CCOCC1)C(=O)OC2` [Mycophenolate mofetil], the Bioavailability [1] is listed as ~90%.
